According to patent US20230365564A1, “COCRYSTALS OF AN ADENOSINE A2B RECEPTOR ANTAGONIST” (Teon Therapeutics, Inc., priority 2020, published 2023):

Tests used:
[1] = Kinetic solubility (solubility-time profile) in biologically relevant fluids; type: physicochemical; details: for solubility: 0.5 h, 2 h and 24 h; for solubility-time profile: 0.5 h to 24 h; for solubility compared with the free form: several biologically relevant media
Experimental: The solubility-time profile of free form compound (1) and the three cocrystals was evaluated in different aqueous media.
(§1) The kinetic solubility experiments were conducted for the free form and the three cocrystals in the following media: (1) pH 1.0 (0.1N) HCl solution, (2) pH 4.5 (50 mM) acetate buffer, (3) pH 6.8 (50 mM) phosphate buffer, (4) FeSSIF-v1 (Fed state stimulated intestinal fluid version 1) (pH 5.0), (5) FaSSIF-v1 (Fasted state stimulated intestinal fluid version 1) (pH 6.5), (6) SGF (Simulated gastric fluid) (pH 2.0), and (7) FaSSIF-v1/4% Soluplus®, and (8) SGF/4% Soluplus®.
(§2) After combining with the respective media at 37° C., the concentration of the free form or cocrystal and the XRPD was measured at 0.5 hours, 2 hours, and 24 hours.

[2] = Bulk stability (HPLC and XRPD); type: physicochemical
Experimental: The bulk stability of the free form and the cocrystals was determined by exposing the compounds to conditions of temperature, humidity and/or radiation flux and evaluating the compound by HPLC and XRPD.

[3] = Aqueous solubility of compound (1); type: physicochemical; details: aqueous medium; substantially independent of pH over a relevant physiological range
[4] = Pharmacokinetics following peroral administration to dogs; parameters: species or system beagle dogs; details: dog, in vivo
Experimental: The pharmacokinetics of the fumaric acid cocrystal of Example 4 was evaluated following peroral administration to dogs.
Male beagle dogs were separated into two groups of three dogs.
[…] The dosing formulation consisted of 0.40 mg/mL of the fumaric acid cocrystal in 4% Soluplus® in simulated gastric fluid (SGF) at pH 2.0, as a homogeneous opaque suspension of fine particles.
[…] The dosing formulation consisted of 2 mg/mL of the fumaric acid cocrystal in 4% Soluplus® in simulated gastric fluid (SGF) at pH 2.0, as a homogeneous opaque suspension of fine particles.

[5] = XRPD form change after standing in aqueous media at 37° C.; type: physicochemical; details: for form change (XRPD) after equilibrating in the aqueous media: 24 hours at 37° C.
Experimental: X-ray powder diffraction (XRPD) was performed using a Bruker D8 Advance® instrument with a Lynxeye® XE T(1D mode) detector at an open angle of 2.94° in continuous scan mode using a Cu/K-α (λ−1.5418 Å) source. The diffraction patterns were obtain over a scan range from 3° to 40° with 0.02° steps, a step duration of 0.12, and a sample rotation speed of 15 rpm.
as §1, §2
The XRPD patterns shown in FIGS. 19-23 are associated with the aqueous media described in Table 1 and for the free form (Compound (1), FF), the benzenesulfonic acid cocrystal (BSA CC), the para-toluenesulfonic acid cocrystal (pTSA CC), and the fumaric acid cocrystal (FA CC).

[6] = Dynamic vapor sorption (DVS) hygroscopicity; type: physicochemical; details: for water absorption (DVS): at 95% RH; for water absorption (DVS) / form change after DVS: 25° C.; for form change after DVS: humidity cycle 40-0-95-0-40% RH
Experimental: Dynamic vapor sorption (DVS) was performed using an Advantage instrument at a total gas flow rate of 200 sccm, an oven temperature of 25° C. with water as the solvent. The humidity cycle was 40-0-95-0-40% RH at step intervals of 10% RH with an equilibration of 0.002 dm/dt (%/min), a maximum, dm/dt stability duration of 60 min, and a maximum dm/dt stage time of 360 min.

[7] = 25° C./60% RH in an open vial, 2 weeks
[8] = 40° C./75% RH in an open vial, 2 weeks
[9] = 60° C. in a closed vial, 2 weeks
[10] = oral, 5 mg/kg, 0.5% methylcellulose
[11] = pH 1.0 HCl, pH 4.5 acetate, pH 6.8 phosphate, FeSSIF-v1, FaSSIF-v1
[12] = SGF, FaSSIF-v1/4% Soluplus and SGF/4% Soluplus
[13] = above 80% RH at 25° C. (then becomes)
[14] = po, 2 mg/kg peroral, fed male beagle dogs, 4% Soluplus in SGF pH 2.0
[15] = po, 10 mg/kg peroral, fed male beagle dogs, 4% Soluplus in SGF pH 2.0

| solubility-time profile ([1]; FaSSIF-v1/4% Soluplus, 37° C.) | solubility-time profile ([1]; SGF/4% Soluplus, 37° C.) | form change (XRPD) after equilibrating in the aqueous media [5, 11] | form change after solubility study [5, 12] | solubility compared with the free form [1] | water adsorption ([6]; 25° C./80% RH) | water adsorption ([6]; 25° C./95% RH) | hygroscopicity (DVS) [6, 13] | water absorption (DVS) [6] | hygroscopicity (DVS) ([6]; below 80% RH at 25° C.) | form change after DVS [6] | SMILES | bulk stability ([2]; 1.2 million lux-hrs) | bulk stability [2, 7] | bulk stability [2, 8] | bulk stability [2, 9] | also measured |
| --- | --- | --- | --- | --- | --- | --- | --- | --- | --- | --- | --- | --- | --- | --- | --- | --- |
| increased over time | increased over time | did not show a change in form | no form change |  |  |  |  |  |  |  | CCCn1c(=O)c2[nH]c(-c3cnn(Cc4cccc(C(F)(F)F)c4)c3)nc2n(CC)c1=O [Compound (1), 3-Ethyl-1-propyl-8-(1-(3-(trifluoromethyl)benzyl)-1H-pyrazol-4-yl)-3,7-dihydro-1H-purine-2,6-dione] | did not exhibit any significant degradation | did not exhibit any significant degradation | did not exhibit any significant degradation | did not exhibit any significant degradation | solubility ([1]; FaSSIF-v1, 37° C.): below the level of quantification (LOQ); solubility ([1]; FeSSIF-v1, 37° C.): below the level of quantification (LOQ); solubility-time profile ([1]; SGF, 37° C.): maintained in the same magnitude; solubility ([1]; pH 1.0 HCl solution, 37° C.): below the level of quantification (LOQ); solubility ([1]; pH 4.5 acetate buffer, 37° C.): below the level of quantification (LOQ); solubility ([1]; pH 6.8 phosphate buffer, 37° C.): below the level of quantification (LOQ); solubility [3]: < 1 µg/mL; Cmax [4, 10]: 81 ng/mL; Tmax [4, 10]: 2 h; half-life [4, 10]: 63 h; AUC(0-t) ([4]; oral, 5 mg/kg, 0.5% methylcellulose, read-out: AUC0-24): 796 ng·h/mL |
| increased over time | increased over time | completely dissociated to the free form | dissociated to free form | higher solubility than the free form | 2.2 wt % | 65 wt % | highly hygroscopic | 65% | only slightly hygroscopic | No form change | CCCn1c(=O)c2[nH]c(-c3cnn(Cc4cccc(C(F)(F)F)c4)c3)nc2n(CC)c1=O.O=S(=O)(O)c1ccccc1 [benzenesulfonic acid cocrystal, 3-ethyl-1-propyl-8-(1-(3-(trifluoromethyl)benzyl)-1H-pyrazol-4-yl)-3,7-dihydro-1H-purine-2,6-dione and benzenesulfonic acid] | stable | stable | began to show some disassociation | stable |  |
|  |  |  |  | higher solubility than the free form | 1.7 wt % | 4.0 wt % |  | 4% |  | No form change | CCCn1c(=O)c2[nH]c(-c3cnn(Cc4cccc(C(F)(F)F)c4)c3)nc2n(CC)c1=O.O=C(O)/C=C/C(=O)O [fumaric acid cocrystal, 3-ethyl-1-propyl-8-(1-(3-(trifluoromethyl)benzyl)-1H-pyrazol-4-yl)-3,7-dihydro-1H-purine-2,6-dione and fumaric acid] | did not exhibit any significant degradation | did not exhibit any significant degradation | did not exhibit any significant degradation | did not exhibit any significant degradation | AUC(0-inf) [4, 14]: 2220 ng·h/mL; Cmax [4, 14]: 148 ng/mL; Tmax [4, 14]: 4 h; half-life [4, 14]: 14.8 h; AUC(0-inf) [4, 15]: 21100 ng·h/mL; Cmax [4, 15]: 976 ng/mL; Tmax [4, 15]: 10.7 h; half-life [4, 15]: 6.5 h; hygroscopicity (DVS) ([6]; above 90% RH at 25° C. (then becomes)): hygroscopic; hygroscopicity (DVS) ([6]; below 90% RH at 25° C.): slightly hygroscopic; form change (XRPD) after equilibrating in the aqueous media ([5]; FaSSIF-v1): only partially dissociated to the free form; form change (XRPD) after equilibrating in the aqueous media ([5]; FeSSIF-v1): only partially dissociated to the free form; form change (XRPD) after equilibrating in the aqueous media ([5]; pH 1.0 HCl solution): did not show any form change; form change (XRPD) after equilibrating in the aqueous media ([5]; pH 4.5 acetate buffer): only partially dissociated to the free form; form change after solubility study ([5]; FaSSIF-v1/4% Soluplus): converted to a mixture of the cocrystal and amorphous state (free form); form change after solubility study ([5]; SGF): dissociated to free form; form change after solubility study ([5]; SGF/4% Soluplus): converted to a mixture of the cocrystal and amorphous state (free form) |
| first increased and then decreased | first increased and then decreased | completely dissociated to the free form | dissociated to free form | higher solubility than the free form | 1.1 wt % | 1.1 wt % | slightly hygroscopic | 11% | only slightly hygroscopic | No form change | CCCn1c(=O)c2[nH]c(-c3cnn(Cc4cccc(C(F)(F)F)c4)c3)nc2n(CC)c1=O.Cc1ccc(S(=O)(=O)O)cc1 [para-toluenesulfonic acid cocrystal, 3-ethyl-1-propyl-8-(1-(3-(trifluoromethyl)benzyl)-1H-pyrazol-4-yl)-3,7-dihydro-1H-purine-2,6-dione and para-toluenesulfonic acid] | did not exhibit any significant degradation | did not exhibit any significant degradation | did not exhibit any significant degradation | did not exhibit any significant degradation |  |
